# Laboratory results taken from article PMC10523607 (Proceedings of the National Academy of Sciences of the …, 2023).
# Molecular target: GPR34 (Homo sapiens, UniProt Q9UPC5)
# Experiment: Tango assay
# Assay type: cell-based
# Conditions: compared with Hit-1 or YL-365
# Chain of GPR34 (Q9UPC5 whole entry): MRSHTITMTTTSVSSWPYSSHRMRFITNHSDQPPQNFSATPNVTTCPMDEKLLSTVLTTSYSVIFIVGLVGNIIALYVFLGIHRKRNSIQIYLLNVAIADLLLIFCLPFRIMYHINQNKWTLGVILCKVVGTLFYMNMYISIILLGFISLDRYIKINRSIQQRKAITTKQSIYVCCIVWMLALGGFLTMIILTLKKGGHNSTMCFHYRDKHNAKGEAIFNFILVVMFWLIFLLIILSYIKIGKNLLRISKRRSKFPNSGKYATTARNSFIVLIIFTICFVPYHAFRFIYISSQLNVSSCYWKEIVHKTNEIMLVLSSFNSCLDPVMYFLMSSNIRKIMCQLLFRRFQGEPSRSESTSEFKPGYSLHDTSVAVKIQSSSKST
smiles,measurement,value
NC(=O)C1(NC(=O)Cc2ccc(OCc3ccccc3)cc2)CCN(C(=O)c2ccc(-c3cccc(Cl)c3)cc2)CC1 [C-27],Potency against GPR34 in words (SAR),showed antagonistic effect
